Source: patent US20230330093A1, “APPLICATION OF NITROGEN-CONTAINING SATURATED HETEROCYCLIC COMPOUND” (SHANGHAI PHARMACEUTICALS HOLDING CO., LTD., priority 2020, published 2023)
Values joined by “and” are separate entries in the source; they are usually repeats but may differ in a detail not shown here. Equal values may be shown once.

Test system: rhesus monkeys with spontaneous chronic kidney disease
Assay: Effect on glomerular filtration rate eGFRcreat-cys, 8-week administration
Type: in vivo, Macaca mulatta (Rhesus Macaque)
Description: CKD-EPI rating […]-G3b, glomerular filtration rate eGFR: 30 59 ml/min/1.73 m^2; or moderate to severe increase in proteinuria (A2-A3): urine albumin/creatinine ratio (UACR)>15 mg/g-350 mg/g (4-6 hour urine collection), vs. age-matched control group 3±2 mg/g. In the trial, animals were brought in three stages. […] Glomerular filtration rate […]: creatinine (Cr-P), urea nitrogen (BUN) and cystatin (CysC) were detected, and the eGFR value was obtained by calculation. It was performed once before the administration and once every two weeks after the administration. […] ELISA kit was used for NT-proBNP test. [table] Selected […] in each group: 30 59 ml/min/1.73 m^2. The changes in the glomerular filtration rate of W8 and baseline were analyzed.

In the case of `COC(=O)NCCCn1nc([C@@H](C)N(C(=O)[C@H]2CNCCO2)C2CC2)c2ccc(C)nc21.O=C(O)C[C@H](O)C(=O)O` [malate of compound of Formula I], the “eGFRcreat-cy, Change value” (1 mg/kg oral once a day, 2 weeks vs baseline, per animal + Mean ± SD) is reported as 1 ml/min/1.73 m^2 and 2 ml/min/1.73 m^2 and −3 ml/min/1.73 m^2 and −2 ml/min/1.73 m^2 and 4 ml/min/1.73 m^2, the “eGFRcreat-cy, Change value” (1 mg/kg oral once a day, 2 weeks vs baseline, per animal + Mean ± SD, mean) is reported as 0 ± 3 ml/min/1.73 m^2 and the “eGFRcreat-cy, Change value” (1 mg/kg oral once a day, 4 weeks vs baseline, per animal + Mean ± SD) is reported as 8 ml/min/1.73 m^2 and 10 ml/min/1.73 m^2 and 3 ml/min/1.73 m^2 and 1 ml/min/1.73 m^2 and 5 ml/min/1.73 m^2. The “eGFRcreat-cy, Change value” (1 mg/kg oral once a day, 4 weeks vs baseline, per animal + Mean ± SD, mean) was 5 ± 4 ml/min/1.73 m^2, the “eGFRcreat-cy, Change value” (1 mg/kg oral once a day, 6 weeks vs baseline, per animal + Mean ± SD) was 7 ml/min/1.73 m^2 and 3 ml/min/1.73 m^2 (3×) and 6 ml/min/1.73 m^2 and the “eGFRcreat-cy, Change value” (1 mg/kg oral once a day, 6 weeks vs baseline, per animal + Mean ± SD, mean) was 4 ± 2 ml/min/1.73 m^2. The “eGFRcreat-cy, Change value” (1 mg/kg oral once a day, 8 weeks vs baseline, per animal + Mean ± SD (no statistical change vs placebo)) was 3±4 ml/min/1.73 m^2 and 7 ml/min/1.73 m^2 and 6 ml/min/1.73 m^2 and 0 ml/min/1.73 m^2 and 2 ml/min/1.73 m^2 and 5 ml/min/1.73 m^2, the “eGFRcreat-cy, Change value” (1 mg/kg oral once a day, Baseline, per animal + Mean ± SD) was 0 ml/min/1.73 m^2 and the “eGFRcreat-cy, Change value” (1 mg/kg oral once a day, Baseline, per animal + Mean ± SD, mean) was 0 ± 0 ml/min/1.73 m^2. For the same molecule, the eGFRcreat-cys (1 mg/kg qd (n = 5), 2 weeks) was 53 ml/min/1.73 m^2 and 56 ml/min/1.73 m^2 and 50 ml/min/1.73 m^2 and 48 ml/min/1.73 m^2, the eGFRcreat-cys (1 mg/kg qd (n = 5), 2 weeks, group mean) was 52 ± 3 ml/min/1.73 m^2 and the eGFRcreat-cys (1 mg/kg qd (n = 5), 4 weeks) was 60 ml/min/1.73 m^2 and 64 ml/min/1.73 m^2 and 55 ml/min/1.73 m^2 and 52 ml/min/1.73 m^2 and 56 ml/min/1.73 m^2. For the same molecule, the eGFRcreat-cys (1 mg/kg qd (n = 5), 4 weeks, group mean) was 57 ± 5 ml/min/1.73 m^2, the eGFRcreat-cys (1 mg/kg qd (n = 5), 6 weeks) was 58 ml/min/1.73 m^2 and 57 ml/min/1.73 m^2 and 56 ml/min/1.73 m^2 and 53 ml/min/1.73 m^2 and the eGFRcreat-cys (1 mg/kg qd (n = 5), 6 weeks, group mean) was 56 ± 2 ml/min/1.73 m^2. For the same molecule, the eGFRcreat-cys (1 mg/kg qd (n = 5), 8 weeks) was 58 ml/min/1.73 m^2 and 59 ml/min/1.73 m^2 and 53 ml/min/1.73 m^2 and 48 ml/min/1.73 m^2 and 57 ml/min/1.73 m^2, the eGFRcreat-cys (1 mg/kg qd (n = 5), 8 weeks, group mean) was 55 ± 5 ml/min/1.73 m^2 and the eGFRcreat-cys (1 mg/kg qd (n = 5), Baseline, single animals and Mean ± SD) was 51 ml/min/1.73 m^2 and 54 ml/min/1.73 m^2 and 53 ml/min/1.73 m^2 and 50 ml/min/1.73 m^2 and 52 ml/min/1.73 m^2. The eGFRcreat-cys (1 mg/kg qd (n = 5), Baseline, single animals and Mean ± SD, group mean) was 52 ± 1 ml/min/1.73 m^2, the “eGFRcreat-cy, Change value” (2 mg/kg oral once a day, 2 weeks vs baseline, per animal + Mean ± SD) was 5 ml/min/1.73 m^2 and −3 ml/min/1.73 m^2 (3×) and 0 ml/min/1.73 m^2 and the “eGFRcreat-cy, Change value” (2 mg/kg oral once a day, 2 weeks vs baseline, per animal + Mean ± SD, mean) was −1 ± 3 ml/min/1.73 m^2. The “eGFRcreat-cy, Change value” (2 mg/kg oral once a day, 4 weeks vs baseline, per animal + Mean ± SD) was 7 ml/min/1.73 m^2 and −5 ml/min/1.73 m^2 and 1 ml/min/1.73 m^2 (2×) and 10 ml/min/1.73 m^2, the “eGFRcreat-cy, Change value” (2 mg/kg oral once a day, 4 weeks vs baseline, per animal + Mean ± SD, mean) was 3 ± 6 ml/min/1.73 m^2 and the “eGFRcreat-cy, Change value” (2 mg/kg oral once a day, 6 weeks vs baseline, per animal + Mean ± SD) was 4 ml/min/1.73 m^2 and −1 ml/min/1.73 m^2 and 0 ml/min/1.73 m^2 and 5 ml/min/1.73 m^2 (2×). For the same molecule, the “eGFRcreat-cy, Change value” (2 mg/kg oral once a day, 6 weeks vs baseline, per animal + Mean ± SD, mean) was 3 ± 3 ml/min/1.73 m^2, the “eGFRcreat-cy, Change value” (2 mg/kg oral once a day, 8 weeks vs baseline, per animal + Mean ± SD (p<0.05 vs placebo)) was 3±3 ml/min/1.73 m^2 and 5 ml/min/1.73 m^2 and 0 ml/min/1.73 m^2 and 2 ml/min/1.73 m^2 and 6 ml/min/1.73 m^2 and 1 ml/min/1.73 m^2 and the “eGFRcreat-cy, Change value” (2 mg/kg oral once a day, Baseline, per animal + Mean ± SD) was 0 ml/min/1.73 m^2. For the same molecule, the “eGFRcreat-cy, Change value” (2 mg/kg oral once a day, Baseline, per animal + Mean ± SD, mean) was 0 ± 0 ml/min/1.73 m^2, the eGFRcreat-cys (2 mg/kg qd (n = 5), 2 weeks) was 58 ml/min/1.73 m^2 and 47 ml/min/1.73 m^2 and 46 ml/min/1.73 m^2 and 43 ml/min/1.73 m^2 and 57 ml/min/1.73 m^2 and the eGFRcreat-cys (2 mg/kg qd (n = 5), 2 weeks, group mean) was 50 ± 7 ml/min/1.73 m^2. The eGFRcreat-cys (2 mg/kg qd (n = 5), 4 weeks) was 61 ml/min/1.73 m^2 and 45 ml/min/1.73 m^2 and 50 ml/min/1.73 m^2 and 56 ml/min/1.73 m^2 and 59 ml/min/1.73 m^2, the eGFRcreat-cys (2 mg/kg qd (n = 5), 4 weeks, group mean) was 54 ± 7 ml/min/1.73 m^2 and the eGFRcreat-cys (2 mg/kg qd (n = 5), 6 weeks) was 58 ml/min/1.73 m^2 and 48 ml/min/1.73 m^2 and 51 ml/min/1.73 m^2 and 62 ml/min/1.73 m^2. For the same molecule, the eGFRcreat-cys (2 mg/kg qd (n = 5), 6 weeks, group mean) was 54 ± 6 ml/min/1.73 m^2, the eGFRcreat-cys (2 mg/kg qd (n = 5), Baseline, single animals and Mean ± SD) was 54 ml/min/1.73 m^2 and 50 ml/min/1.73 m^2 and 48 ml/min/1.73 m^2 and 46 ml/min/1.73 m^2 and 58 ml/min/1.73 m^2 and the eGFRcreat-cys (2 mg/kg qd (n = 5), Baseline, single animals and Mean ± SD, group mean) was 51 ± 5 ml/min/1.73 m^2. For the same molecule, the “eGFRcreat-cy, Change value” (5 mg/kg oral once a day, 2 weeks vs baseline, per animal + Mean ± SD) was 4 ml/min/1.73 m^2 and 9 ml/min/1.73 m^2 and 11 ml/min/1.73 m^2 and −4 ml/min/1.73 m^2 and 1 ml/min/1.73 m^2 and 17 ml/min/1.73 m^2.
